The target of this experiment is PAI-1 (Homo sapiens, UniProt P05121). Briefly: PAI chromogenic substrate assay (first S2251 assay, tPA/plasminogen system). It is filed as biochemical. On the procedure: In this assay, a compound is incubated with PAI-1 prior to addition to the tPA assay system. Inhibition of PAI-1 results in the production of plasmin from plasminogen. In turn, plasmin cleaves the chromogenic substrate S2251 (Kabi Vitrum) producing pNA (p-nitroaniline) which is detected spectrophotometrically at 405 nm (K. Nilsson et al, Fibrinolysis (1987) 1, 163-168).
Compounds of formula (A) were tested in a PAI chromogenic substrate assay. In the first assay (K. Nilsson, Fibrinolysis (1987) 1, 163-168) each compound was incubated with PAI-1 prior to addition to the tPA assay system. […] In turn, the plasmin cleaved the chromogenic substrate S2251 (Kabi-Vitrum) producing pNA (p-nitroaniline) which was detected spectrophotometrically at 405 nm.

PAI-1, sequence (P05121 24-402): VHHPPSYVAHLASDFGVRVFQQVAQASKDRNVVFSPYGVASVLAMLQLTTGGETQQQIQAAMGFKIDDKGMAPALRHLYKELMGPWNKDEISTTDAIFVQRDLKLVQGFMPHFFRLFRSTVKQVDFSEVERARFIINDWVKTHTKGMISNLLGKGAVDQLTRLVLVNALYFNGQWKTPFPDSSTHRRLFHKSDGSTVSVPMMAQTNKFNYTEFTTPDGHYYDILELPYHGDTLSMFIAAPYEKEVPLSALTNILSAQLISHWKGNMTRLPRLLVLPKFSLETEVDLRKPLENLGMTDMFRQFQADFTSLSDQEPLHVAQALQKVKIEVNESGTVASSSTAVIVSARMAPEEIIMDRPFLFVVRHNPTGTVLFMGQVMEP

Take `COc1ccc(/C=c2\[nH]c(=O)/c(=C/c3ccccc3)[nH]c2=O)cc1` [Compound 3, (3Z,6Z,)-6-benylidene-3-(4-methoxybenzylidene)-2,5-piperazinedione]: the Inhibition of PAI-1 in the first S2251 chromogenic substrate assay turned out to be 14% (Concentration 6 μm); 40% (Concentration 12 μm); 53% (Concentration 25 μm); 74% (Concentration 50 μm); 86% (Concentration 100 μm).

For the compound `O=c1[nH]/c(=C\c2c(Cl)cccc2Cl)c(=O)[nH]/c1=C\c1ccccc1` [Compound 21, (3Z,6Z)-6-Benzylidene-3-(2,6-dichlorobenzylidene)-2,5-piperazinedione], the Inhibition of PAI-1 in the first S2251 chromogenic substrate assay reads like this: (Concentration 6.25 μm) 0%; (Concentration 12.5 μm) 0%; (Concentration 25 μm) 2%; (Concentration 50 μm) 35%; (Concentration 100 μm) 79%.

For the compound `O=c1[nH]c(=Cc2ccccc2)c(=O)[nH]c1=Cc1ccccc1` [Compound 22, 3,6-Dibenzylidene-2,5-piperazinedione], the Inhibition of PAI-1 in the first S2251 chromogenic substrate assay by setting is: (Concentration 6.25 μm) 0%; (Concentration 12.5 μm) 0%; (Concentration 25 μm) 1%; (Concentration 50 μm) 2%; (Concentration 100 μm) 61%.

On to `CC(=O)Oc1ccc(/C=c2\[nH]c(=O)/c(=C/c3ccccc3)[nH]c2=O)cc1` [Compound 23, (3Z,6Z)-3-(4-Acetoxybenzylidene)-6-benzylidene-2,5-piperazinedione], for which the Inhibition of PAI-1 in the first S2251 chromogenic substrate assay is 0% (Concentration 7.5 μm), 0% (Concentration 15 μm), 17% (Concentration 30 μm) and 65% (Concentration 60 μm).

`O=c1[nH]/c(=C\c2cccc([N+](=O)[O-])c2)c(=O)[nH]/c1=C\c1ccccc1` [Compound 24, (3Z,6Z)-6-Benzylidene-3-(3-nitrobenzylidene)-2,5-piperazinedione]: the Inhibition of PAI-1 in the first S2251 chromogenic substrate assay runs as follows: (Concentration 3.75 μm) 0%; (Concentration 7.5 μm) 0%; (Concentration 15 μm) 0%; (Concentration 30 μm) 29%; (Concentration 60 μm) 56%.

For `CCOc1ccc(/C=c2\[nH]c(=O)/c(=C/c3ccccc3)[nH]c2=O)cc1` [Compound 25, (3Z,6Z)-6-Benzylidene-3-(4-ethoxybenzylidene)-2,5-piperazinedione], the Inhibition of PAI-1 in the first S2251 chromogenic substrate assay (Concentration 6.25 μm) worked out at 0%; the Inhibition of PAI-1 in the first S2251 chromogenic substrate assay (Concentration 12.5 μm) worked out at 0%; the Inhibition of PAI-1 in the first S2251 chromogenic substrate assay (Concentration 25 μm) was 1%; the Inhibition of PAI-1 in the first S2251 chromogenic substrate assay (Concentration 50 μm) was found to be 25%; the Inhibition of PAI-1 in the first S2251 chromogenic substrate assay (Concentration 100 μm) turned out to be 52%.

In turn, `COc1ccc(/C=c2\[nH]c(=O)/c(=C/c3ccc(NC(C)=O)cc3)[nH]c2=O)cc1` [Compound 26, (3Z,6Z)-3-(4-Acetamidobenzylidene)-6-(4-methoxybenzylidene)-2,5-piperazinedione] registered an Inhibition of PAI-1 in the first S2251 chromogenic substrate assay (Concentration 7.5 μm) of 42%, an Inhibition of PAI-1 in the first S2251 chromogenic substrate assay (Concentration 15 μm) of 73%, an Inhibition of PAI-1 in the first S2251 chromogenic substrate assay (Concentration 30 μm) of 71% and an Inhibition of PAI-1 in the first S2251 chromogenic substrate assay (Concentration 60 μm) of 57%.

For `COc1ccc(/C=c2\[nH]c(=O)/c(=C/c3ccc4ccccc4c3)[nH]c2=O)cc1` [Compound 27, (3Z,6Z)-3-(4-Methoxybenzylidene)-6-(2-naphthylmethylene)-2,5-piperazinedione], the Inhibition of PAI-1 in the first S2251 chromogenic substrate assay is 9% (Concentration 12.5 μm), 8% (Concentration 25 μm), 35% (Concentration 50 μm) and 70% (Concentration 100 μm).
